Measurements from ChEMBL document CHEMBL1121498, “Conformationally restricted phenothiazine neuroleptics. 1. 3-(Dimethylamino)-1,2,3,4-tetrahydroazepino[3,2,1-kl]phenothiazine” (J Med Chem, 1980).

How the values were obtained:
Rattus norvegicus [1] = species on record: Rattus norvegicus; test: (§1) Compound was tested for inhibition of [3H]spiperone binding in membrane preparations obtained from rat corpus striatum.; assay type: functional
[2] = Compound was tested for inhibition of [3H]spiperone binding in membrane preparations obtained from calf caudate.; design: species or system Bos taurus
Rattus norvegicus [3] = species on record: Rattus norvegicus; test: Percentage increase in rat corpus striatal HVA synthesis; assay type: functional
Dopamine receptor [4] = target: Dopamine receptor (Bos taurus, UniProt Q95136+P20288)
Dopamine receptor [5] = test: as §1
Rattus norvegicus [6] = test: Compound was evaluated for its ability to stimulate the synthesis of homovanillic acid (HVA) in rat in vivo; assay type: functional

Compound | IC50 (Rattus norvegicus [1]) [nM] | IC50 [2] [nM] | Increase (Rattus norvegicus [3]) [%] | IC50 (Dopamine receptor [4]) [nM] | IC50 (Dopamine receptor [5]) [nM] | ED50 (Rattus norvegicus [6]) [µmol/kg]
CN(C)C1CCN2c3ccccc3Sc3cccc(c32)C1 (configuration not stated) | 2150 | 2400 | 24 |  |  | 
CN(C)CCCN1c2ccccc2Sc2ccccc21 [PROMAZINE] |  |  | 250 | 130 | 1040 | 200
